From the NIST ThermoML archive (doi:10.1016/j.tca.2019.03.028) come the findings set out here.

A short description of data set [1]: relative permittivity at various frequencies (dimensionless); wn = mass fraction of the nth substance listed. Particulars: 293.15 K, 100 kPa, Liquid, Frequency=0.01 MHz, Coaxial cylinder capacitor.
A short description of data set [2]: relative permittivity at various frequencies (dimensionless). As to conditions: 293.15 K; 100 kPa; Liquid; Frequency=0.01 MHz; Coaxial cylinder capacitor.

Numbers after ± are expanded uncertainties.

Take `c1ccccc1` [benzene] + CC#N: in data set [1] (w2 = 0), the relative permittivity is given as 2.29 ± 0.13. `C1CCCCC1` [cyclohexane]: the relative permittivity in data set [2] is given as 2.02 ± 0.12.

Take `C1CCCCC1` [cyclohexane] + c1ccccc1: the relative permittivity is reported as 2.2 ± 0.13 in data set [1] (w1 = 0.25), 2.13 ± 0.13 in data set [1] (w1 = 0.5), 2.07 ± 0.12 in data set [1] (w1 = 0.75) and 2.02 ± 0.12 in data set [1] (w1 = 1).

Regarding `c1ccccc1` [benzene] + C1CCCCC1, the relative permittivity in data set [1] (w2 = 0) stood at 2.29 ± 0.13. For the molecule `c1ccccc1` [benzene], the relative permittivity in data set [2] is 2.29 ± 0.13. The same measure, in the same setting: under `ClC(Cl)(Cl)Cl` [tetrachloromethane] stands 2.23 ± 0.13.

On to `ClC(Cl)(Cl)Cl` [tetrachloromethane] + CC#N, for which the relative permittivity worked out at 2.23 ± 0.13 in data set [1] (w2 = 0), 14.96 ± 0.71 in data set [1] (w2 = 0.25), 25.7 ± 1.2 in data set [1] (w2 = 0.5) and 34.2 ± 1.6 in data set [1] (w2 = 0.75). In the case of `CC#N` [acetonitrile], in data set [2], the relative permittivity amounted to 37.7 ± 1.7. In the case of `CC#N` [acetonitrile] + c1ccccc1, the relative permittivity is on record as 10.21 ± 0.49 in data set [1] (w1 = 0.25), 19.8 ± 0.93 in data set [1] (w1 = 0.5), 28.5 ± 1.3 in data set [1] (w1 = 0.75) and 37.7 ± 1.7 in data set [1] (w1 = 1). `CC#N` [acetonitrile] + ClC(Cl)(Cl)Cl: in data set [1] (w1 = 1), the relative permittivity was 37.7 ± 1.7.
